pKd: −log10 of the molar value.
Target: T1, mutant EGFR (T790M, L858R) (Homo sapiens, UniProt P00533, L858R/T790M)
T1 construct: The EGFR constructs span amino acids R669 to V1011 of the EGFR protein; made in house; host or cells: E. coli derived from BL21 (T7 phage) for most assays; remaining kinases in HEK-293 cells
Test: In vitro kinase assay (phage/DNA-tagged kinase competition binding, qPCR readout), mutant EGFR
Details: for Binding Affinity ratio of WT/DM: ratio of Kd EGFR (WT) to Kd EGFR (L858R, T790M) double mutant
Protocol: For most assays, kinase-tagged T7 phage strains were prepared in an E. coli host derived from the BL21 strain. For the EGFR assays, wild-type EGFR, or mutant EGFR (T790M, L858R) were utilized. The EGFR constructs span amino acids R669 to V1011 of the EGFR protein. E. coli were grown to log-phase and infected with T7 phage and incubated with shaking at 32° C. until lysis. The lysates were centrifuged and filtered to remove cell debris. The remaining kinases were produced in HEK-293 cells and subsequently tagged with DNA for qPCR detection. Streptavidin-coated magnetic beads were treated with biotinylated small molecule ligands for 30 minutes at room temperature to generate affinity resins for kinase assays. The liganded beads were blocked with excess biotin and washed with blocking buffer (SeaBlock (Pierce), 1% BSA, 0.05% Tween 20, 1 mM DTT) to remove unbound ligand and to reduce non-specific binding. Binding reactions were assembled by combining kinases, liganded affinity beads, and test compounds in 1× binding buffer (20% SeaBlock, 0.17×PBS, 0.05% Tween 20, 6 mM DTT). Test compounds were prepared as 111× stocks in 100% DMSO. Kds were determined using an 11-point 3-fold compound dilution series with three DMSO control points. All compounds for Kd measurements are distributed by acoustic transfer (non-contact dispensing) in 100% DMSO. The compounds were then diluted directly into the assays such that the final concentration of DMSO was 0.9%. All reactions performed in polypropylene 384-well plate. Each was a final volume of 0.02 ml. The assay plates were incubated at room temperature with shaking for 1 hour and the affinity beads were washed with wash buffer (1×PBS, 0.05% Tween 20). The beads were then re-suspended in elution buffer (1×PBS, 0.05% Tween 20, 0.5 μM nonbiotinylated affinity ligand) and incubated at room temperature with shaking for 30 minutes. The kinase concentration in the eluates was measured by qPCR.

T1 sequence (P00533 669-1011 T790M/L858R): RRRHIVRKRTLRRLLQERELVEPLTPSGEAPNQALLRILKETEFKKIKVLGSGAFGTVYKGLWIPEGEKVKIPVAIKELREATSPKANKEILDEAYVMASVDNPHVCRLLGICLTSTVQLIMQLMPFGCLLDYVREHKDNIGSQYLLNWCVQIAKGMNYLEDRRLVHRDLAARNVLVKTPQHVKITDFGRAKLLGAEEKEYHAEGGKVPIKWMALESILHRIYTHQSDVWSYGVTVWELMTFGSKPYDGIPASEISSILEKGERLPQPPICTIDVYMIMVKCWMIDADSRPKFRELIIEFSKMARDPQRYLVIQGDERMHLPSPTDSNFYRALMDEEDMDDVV

Compound	Binding Affinity ratio of WT/DM	pKd (EGFR construct R669 to V1011, 11-point 3-fold dilution series, 1 hour at room temperature)
C=CC(=O)N[C@@H]1CN(c2nc(Nc3cn(CCCCCNC(=O)CN4CCN5CCN6CCN(CC4)CC(=O)[O][Lu]([O]C(=O)C5)[O]C(=O)C6)nc3OC)c3ncn(C(C)(C)C)c3n2)C[C@H]1F [Compound 004-Lu]	B (25 < B ≤ 100)	–
C=CC(=O)N[C@@H]1CN(c2nc(Nc3cn(CCCNC(=O)CN4CCN5CCN6CCN(CC4)CC(=O)[O][Lu]([O]C(=O)C5)[O]C(=O)C6)nc3OC)c3ncn(C)c3n2)C[C@H]1F [Compound 001-Lu]	A (4 < A ≤ 25)	–
C=CC(=O)N[C@@H]1CN(c2nc(Nc3cn(CCCCCNC(=O)CN4CCN(CC(=O)O)CCN(CC(=O)O)CCN(CC(=O)O)CC4)nc3OC)c3ncn(C)c3n2)C[C@H]1F [Compound 002, 2-[4,7-bis(carboxymethyl)-10-[2-[5-[4-[[2-[(3R,4R)-3-fluoro-4-(prop-2-enoylamino)pyrrolidin-1-yl]-9-methyl-purin-6-yl]amino]-3-methoxy-pyrazol-1-yl]pentylamino]-2-oxo-ethyl]-1,4,7,10-tetrazacyclododec-1-yl]acetic acid]	A (4 < A ≤ 25)	> 9.00
C=CC(=O)N[C@@H]1CN(c2nc(Nc3cn(CCCCCNC(=O)CN4CCN5CCN6CCN(CC4)CC(=O)[O][Lu]([O]C(=O)C5)[O]C(=O)C6)nc3CC)c3ncn(C(C)(C)C)c3n2)C[C@H]1F [Compound 005-Lu]	C (100 < C ≤ 1000)	–
C=CC(=O)N1C[C@H](COc2nc(Nc3cnn(CCCCCNC(=O)CN4CCN5CCN6CCN(CC4)CC(=O)[O][Lu]([O]C(=O)C5)[O]C(=O)C6)c3)nc3[nH]cc(Cl)c23)[C@@H](OC)C1 [Compound 007-Lu, N-[5-[4-[[5-chloro-4-[[(3R,4R)-4-methoxy-1-prop-2-enoyl-pyrrolidin-3-yl]methoxy]-7H-pyrrolo[2,3-d]pyrimidin-2-yl]amino]pyrazol-1-yl]pentyl]-2-(3,16,19-trioxo-2,17,18-trioxa-5,8,11,14-tetraza-1λ3-lutetatricyclo[9.6.3.25,14]docosan-8-yl) acetamide]	C (100 < C ≤ 1000)	–
